Laboratory results as given in patent US6894068B2, “Substituted benzimidazoles as non-nucleoside inhibitors of reverse transcriptase” (The United States of America as represented by the …, priority 1997, dated 2005).
Values joined by “and” are separate entries in the source; they are usually repeats but may differ in a detail not shown here. Identical values can stand only once. Like-named read-outs stand apart in the source and are kept apart here.

Experiments:
[1] = molecular target: HIV-1 WT RT (Human immunodeficiency virus type 1 group M subtype B, UniProt P03366); assay: biochemical; format: biochemical; details: for inhibition at 1 µM / % inhibn (1 μM): 1 μM drug, WT HIV-1 RT; for inhibition at 1 µM: read-out: % inhibn (1 μM)
[2] = system: HIV-1 WT virus (NL4-3); assay: microbe, parasite or virus in culture; format: cell-based; details: for EC50: read-out: EC50; for inhibitory potency against HIV-1 (CIC50), result in words: CEMSS cell culture, WT virus (NL4-3), relative to parent compounds 1 and 2
Protocol: Evaluation of these compounds for the inhibition of HIV-1 was determined as the fifty percent cell culture inhibitory concentration (CIC50) in CEMSS cell culture with WT virus (NL4-3).
(§1) In this Example, the antiviral and cellular toxicity of NNRTIs was investigated, using the cytopathic cell killing assay described by Yang (Yang et al., “Characteristics of a Group of Non-nucleoside Reverse Transcriptase Inhibitors with Structural Diversity and Potent Anti-Human Immunodeficiency Virus Activity,” Leukemia 9:S75-S85 [1995]). Briefly, in this method cells (e.g., the CEM-SS cell line, available from the NIAID AIDS Research and Reference Program [ARRRP]) were seeded at a density of 5×10^3 cells/well, into the wells of a 96-well microtiter plate. The cells were then infected with HIV virus (either mutant or WT), at a multiplicity of infection (MOI) previously determined to provide complete cell killing by 6 days of culture post-infection (e.g., MOI of 0.01-0.05). Each of the HIV isolates was pre-titered to induce equivalent levels of infection based on cell killing or virus production, prior to their use in these assays. A range of test compound concentrations was added to the wells in triplicate (e.g., serial half-log dilutions) to evaluate inhibition of HIV infection. Controls for each assay included drug controls (drug colorimetric control wells), drug cytotoxicity control wells (cells with drug), virus control wells (cells with virus), and cell viability controls (cells only). Positive control drugs (e.g. AZT and ddC) were also run in parallel.
(§2) After six days of incubation at 37° C., cell viability was determined spectrophotometrically at 450 nm for each well, using the metabolic reduction of XTT to a soluble colored formazan. (See, Gartner and Popovic, “Virus Isolation and Production, in Aldovini and Walker (eds.), Techniques in HIV Research, Stockton Press, NY, pp. […] [1991]; and Nara and Fischinger, “Quantitative Infectivity Assay for HIV-1 and HIV-2, ” Nature 332:469-470 [1988]).
(§3) The in vitro therapeutic index (TI50) was defined as the fold-difference between the EC50 and IC50. The results for the various compounds are included in FIGS. 8 and 19.

[3] = system: HIV-1 isolate 4xAZT/Y181C; assay: Cytopathic cell killing assay, MT-4 cells, isolate 4xAZT/Y181C; format: cell-based; details: Human immunodeficiency virus 1, MT4, read-out: EC50, isolate 4XAZT/Y181C
From the text: (§4) The various HIV isolates tested in the Figures are those corresponding to wild-type virus (NL4-3) and the other strains listed by their RT mutations. The three 4×AZT isolates included in the Figures represent AZT drug-resistant variants. For example, the 4×AZT/L100I isolate has five mutations: four mutations confer increased resistance to AZT, and the other mutation is located within the NNRTI binding pocket. TZB and nevir. (nevirapine) are two well-known NNRTIs, included in this experiment for comparison purposes.
as §1, §2, §3

[4] = system: HIV-1 NL4-3 (WT); assay: Cytopathic cell killing assay, MT-4 cells, isolate NL4-3 (WT); format: cell-based
From the text: as §4, §1, §2, §3

[5] = system: HIV-1 isolate L100I; assay: Cytopathic cell killing assay, MT-4 cells, isolate L100I; format: cell-based
From the text: as §4, §1, §2, §3

[6] = system: HIV-1 isolate K101E; assay: Cytopathic cell killing assay, MT-4 cells, isolate K101E; format: cell-based
From the text: as §4, §1, §2, §3

[7] = system: HIV-1 isolate K103N; assay: Cytopathic cell killing assay, MT-4 cells, isolate K103N; format: cell-based; details: for EC50: values in μM
From the text: as §4, §1, §2, §3

[8] = system: HIV-1 isolate V108I; assay: Cytopathic cell killing assay, MT-4 cells, isolate V108I; format: cell-based; details: values in μM
From the text: as §4, §1, §2, §3

[9] = system: HIV-1 isolate Y181C; assay: Cytopathic cell killing assay, MT-4 cells, isolate Y181C; format: cell-based
From the text: as §4, §1, §2, §3

[10] = system: HIV-1 isolate Y188C; assay: Cytopathic cell killing assay, MT-4 cells, isolate Y188C; format: cell-based; details: values in μM
From the text: as §4, §1, §2, §3

[11] = system: WT and HIV-1 variants containing amino acid substitutions in RT; format: cell-based; details: cytopathic cell killing assay, NNRTI-resistant HIV isolates
From the text: In these Tables, antiviral data are reported as the quantity of drug in μM required to reduce cell killing or virus production by 50% (EC50). The various HIV isolates tested in the Figures are those corresponding to wild-type virus (NL4-3) and the other strains listed by their RT mutations. The three 4×AZT isolates included in the Figures represent AZT drug-resistant variants.
Briefly, in this method cells (e.g., the CEM-SS cell line, available from the NIAID AIDS Research and Reference Program [ARRRP]) were seeded at a density of 5×10^3 cells/well, into the wells of a 96-well microtiter plate. The cells were then infected with HIV virus (either mutant or WT), at a multiplicity of infection (MOI) previously determined to provide complete cell killing by 6 days of culture post-infection (e.g., MOI of 0.01-0.05). Each of the HIV isolates was pre-titered to induce equivalent levels of infection based on cell killing or virus production, prior to their use in these assays. A range of test compound concentrations was added to the wells in triplicate (e.g., serial half-log dilutions) to evaluate inhibition of HIV infection. Controls for each assay included drug controls (drug colorimetric control wells), drug cytotoxicity control wells (cells with drug), virus control wells (cells with virus), and cell viability controls (cells only). Positive control drugs (e.g. AZT and ddC) were also run in parallel.
as §2
Antiviral and toxicity data were reported as the quantity of drug required to inhibit 50% of virus-induced cell killing or virus production (EC50), and the quantity of drug required to […] (IC50). The in vitro therapeutic index (TI50) was defined as the fold-difference between the EC50 and IC50.

[12] = system: HIV-1 isolate A98G; assay: Cytopathic cell killing assay, MT-4 cells, isolate A98G; format: cell-based; details: Human immunodeficiency virus 1, MT4, read-out: EC50, isolate A98G, Table 8; MT-4 cells
From the text: as §4, §1, §2, §3

[13] = system: HIV-1 isolate V179D; assay: Cytopathic cell killing assay, MT-4 cells, isolate V179D; format: cell-based; details: MT-4 cells
From the text: as §4, §1, §2, §3

[14] = Human immunodeficiency virus 1, NL43, CEM-SS, Table 11, CEMSS/NL4-3, NRVC = no reduction in viral CPE
[15] = Human immunodeficiency virus 1, NL43, CEM-SS, Table 7, drug concentration required to reduce cell killing or virus production by 50%, WT
[16] = Human immunodeficiency virus 1, MT4, read-out: EC50, isolate V108I, Table 10
[17] = Human immunodeficiency virus 1, MT4, read-out: EC50, isolate Y181C, Table 10, values in μM
[18] = Human immunodeficiency virus 1, MT4, read-out: EC50, isolate Y188C, Table 10
[19] = Human immunodeficiency virus 1, NL43, MT4, Table 8, MT-4 cells, read-out: EC50, isolate NL4-3
[20] = Human immunodeficiency virus 1, MT4, read-out: EC50, isolate K103N, Table 10
[21] = Human immunodeficiency virus 1, MT4, read-out: EC50, isolate Y181C, Table 8, MT-4 cells

Fc1cccc(F)c1Cn1c(-c2c(F)cccc2F)nc2ccccc21 [Compound 26, 1-(2,6-difluorobenzyl)-2-(2,6-difluorophenyl)benzimidazole]
inhibition at 1 µM ([1]; Table 5, average of two experiments done in triplicates): 50% | RT inhibition, result in words ([1]; WT RT): four-fold increase in inhibitory activity | EC50 [2, 14]: 1700 nM | EC50 [3]: > 20000 nM

Cc1ccccc1-c1nc2ccccc2n1Cc1c(F)cccc1F [Compound 36, 1-(2,6-difluorobenzyl)-2-(2-methylphenyl)benzimidazole]
RT inhibition, result in words ([1]; WT RT): two-fold decrease in RT inhibition | melting point: 139 °C

[N-]=[N+]=NCc1cccc2c1nc(-c1c(F)cccc1F)n2Cc1c(F)cccc1F [Compound 70, 1-(2,6-difluorobenzyl)-2-(2,6-difluorophenyl)benzimidazol-4-yl-azidomethyl]
EC50 ([2]; Table 11, CEMSS/NL4-3, NRVC = no reduction in viral CPE): 45 nM | EC50 ([4]; Table 10, values in μM, read-out: EC50, isolate NL4-3 (WT)): 0.045 µM | EC50 ([5]; Table 10, values in μM, read-out: EC50, isolate L100I): 0.06 µM | EC50 ([6]; Table 10, values in μM, read-out: EC50, isolate K101E): 0.6 µM | EC50 ([7]; Table 10, read-out: EC50, isolate K103N): 1.48 µM | EC50 ([8]; Table 10, read-out: EC50, isolate V108I): 0.026 µM | EC50 ([9]; Table 10, values in μM, read-out: EC50, isolate Y181C): 0.82 µM | EC50 ([10]; Table 10, read-out: EC50, isolate Y188C): 0.22 µM

Fc1cccc(F)c1Cn1c(-c2c(F)cccc2F)nc2c(Br)cccc21 [Compound 3400, 4-bromo-1-(2,6-difluorobenzyl)-2-(2,6-difluorophenyl)benzimidazole]
EC50 [2, 15]: 370 nM | EC50 [8, 16]: 4.2 µM | EC50 [9, 17]: 10.7 µM | EC50 [10, 18]: 3.7 µM | melting point: 147 to 148 °C

Fc1cccc(F)c1Cn1c(-c2c(F)cccc2F)nc2c(Cl)cccc21 [Compound 3500, 4-chloro-1-(2,6-difluorobenzyl)-2-(2,6-difluorophenyl)benzimidazole]
inhibitory potency against HIV-1 (CIC50), result in words [2]: modest potency-enhancing effect | EC50 [2, 15]: 440 nM | EC50 [2, 14]: 440 nM | EC50 [4, 19]: 0.4 µM | EC50 [7, 20]: 10.2 µM | EC50 [8, 16]: 3.2 µM | EC50 [9, 21]: 7.3 µM | EC50 [9, 17]: 8.4 µM | EC50 [10, 18]: 3.4 µM | cross-resistance profile, result in words [11]: inhibit HIV-1 better than TZB | melting point: 163 to 164 °C and 163 °C

CN(C)c1cccc2c1nc(-c1c(F)cccc1F)n2Cc1c(F)cccc1F [Compound 3700, 1-(2,6-difluorobenzyl)-2-(2,6-difluorophenyl)-4-N,N-dimethylaminobenzimidazole]
inhibition at 1 µM ([1]; Table 7): 77% | IC50 ([1]; read-out: IC50): 40000 nM | EC50 [2, 15]: 2370 nM | EC50 [2, 14]: 2370 nM | EC50 ([4]; Human immunodeficiency virus 1, NL43, MT4, Table 10, values in μM, read-out: EC50, isolate NL4-3 (WT)): 2.88 µM | EC50 ([5]; Human immunodeficiency virus 1, MT4, read-out: EC50, isolate L100I, Table 10, values in μM): 31.6 µM | EC50 [7, 20]: > 100 µM | EC50 [9, 17]: > 100 µM | melting point: 155 to 156 °C

CC(=O)N(C)c1cccc2c1nc(-c1c(F)cccc1F)n2Cc1c(F)cccc1F [Compound 5011, 1-(2,6-difluorobenzyl)-2-(2,6-difluorophenyl)-4-(N-methylacetamido)benzimidazole]
IC50 [1]: 320 nM | % inhibn (1 μM) ([1]; Table 7): 77% | EC50 [2, 15]: 20 nM | EC50 ([2]; Human immunodeficiency virus 1, NL43, CEM-SS, text b130, cytopathic cell killing assay, WT): 20 nM | fold more potent than the 4-methyl or 4-amino compounds (EC50) ([2]; cytopathic cell killing assay): 20 fold | EC50 [12]: 100 nM | cross-resistance profile, result in words ([11]; listed as N-methyl acetamido): inhibit HIV-1 better than TZB | cross-resistance profile, result in words ([11]; listed as N-methylacetamido): equal or better against the various variants than nevirapine | melting point: 155 to 156 °C

CNc1cccc2c1nc(-c1c(F)cccc1F)n2Cc1c(F)cccc1F [Compound 5012, 1-(2,6-difluorobenzyl)-2-(2,6-difluorophenyl)-4-(N-methylamino)benzimidazole]
IC50 [1]: 4940 nM | % inhibn (1 μM) ([1]; Table 7): 24% | inhibitory potency against HIV-1 (CIC50), result in words [2]: significantly poorer inhibitors | EC50 [2, 15]: 1700 nM | EC50 [2, 14]: 1700 nM | EC50 ([13]; Human immunodeficiency virus 1, MT4, read-out: EC50, isolate V179D, Table 8): 3800 nM | cross-resistance profile, result in words [11]: inhibit HIV-1 better than TZB

Nc1cccc2c1nc(-c1c(F)cccc1F)n2Cc1c(F)cccc1F [Example 53]
IC50 ([1]; Table 11, WT RT, read-out: IC50): 280 nM | EC50 [2, 14]: 460 nM | melting point: 139 to 141 °C

CC1Cn2c(=O)[nH]c3cccc(c32)CN1 (centres unmarked) [TIBO, 4,5,6,7-tetrahydro-5-methylimidazo[4,5,1-jk][1,4]benzodiazepin-2(1H)-one, reference compound]
EC50 ([5]; Human immunodeficiency virus 1, MT4, read-out: EC50, isolate L1001, Table 4, MT-4 cells): ≥ 17.4 µM

Cc1ccnc2c1NC(=O)c1cccnc1N2C1CC1 [nevir., nevirapine, reference compound]
EC50 [2, 14]: 35 nM | EC50 [4, 19]: 0.04 µM | EC50 ([6]; Human immunodeficiency virus 1, MT4, read-out: EC50, isolate K101E, Table 8, MT-4 cells): 1.1 µM | activity against K103N, result in words ([7]; cytopathic cell killing assay): ineffective | EC50 ([13]; Human immunodeficiency virus 1, MT4, read-out: EC50, isolate V179D, Table 9): 200 nM | EC50 [9, 21]: 4.9 µM
